Test results taken from patent US20050136492A1, “Affinity labeling of enzymes for detection of enzyme activity level in living cells” (priority 2001, published 2005).
“And” between values parts separate entries of the source, which are not always exact repeats. Equal values may be shown once.

Experiments:
[1] = test system: HL-60 cells; assay: Pretreatment of HL-60 cells with unlabeled protease inhibitors during CPT induction of apoptosis; subsequent binding of FAM-VAD-FMK, FFCK or FLCK measured by LSC; format: cell-based, Human; settings: HL-60, 0.15 μM CPT 3 h, pretreatment with unlabeled inhibitor (Z-VAD-FMK 50 μM); probe 10 μM; mean ± SE of three experiments
Description: (§1) Preparation of reagents: Fluorescent inhibitors of serine proteases (FLISP) reagents, 5(6)-Carboxyfluoresceinyl-L-phenylalanylchloromethyl ketone (FFCK) and 5(6)-carboxyfluoresceinyl-L-leucylchloromethyl ketone (FLCK) were dissolved initially in dimethyl sulfoxide (DMSO; Sigma) to yield a 10 mM concentration. Aliquots were made from this stock solution and stored frozen at −20° C. protected from light. This reagent stock was then diluted directly into the cell culture media to give a 1× working reagent concentration of 10 μM. Dilution of the reagent into aqueous (cell culture) media is done just prior to cell exposure to preserve the labile chloromethyl ketone reactivity of FLISP reagent.
Fluorescent inhibitors of caspases (FLICA) reagents, namely the fluorescein labeled VAD-FMK (FAM-VAD-FMK) and sulforhodamine labeled VAD-FMK (SR-VAD-FMK) (Immunochemistry Technologies; Bloomington, Minn.) were both designed to detect the presence of active caspases within apoptotic cells. These inhibitors were dissolved in DMSO to obtain a 150× concentrated stock solution. Aliquots of these solutions were stored at −20° C. in the dark. […]
Cell staining and fluorescence measurement by LSC: The HL-60 cells from the untreated or CPT treated cultures were centrifuged (200 g, 5 min) and resuspended in PBS at approximately 10^4 cells per 5 mL volume. […]

[2] = test system: HL-60 cells; assay: Labeling of CPT-treated HL-60 cells with FLISP (FFCK, FLCK) and FLICA (FAM-VAD-FMK, SR-VAD-FMK) reagents, by LSC or fluorescence microscopy; format: cell-based, Human; settings: for binding of the ligand by cells treated with CPT vs untreated (control) cells: HL-60, 3 h CPT, combined with PI; for fluorescence of labeled cells (appearance): dual labeling with SR-VAD-FMK, CPT-treated HL-60, microscopy/LSC imaging
Description: as §1
Fluorescent inhibitors of caspases (FLICA) reagents, namely the fluorescein labeled VAD-FMK (FAM-VAD-FMK) and sulforhodamine labeled VAD-FMK (SR-VAD-FMK) (Immunochemistry Technologies; Bloomington, Minn.) were both designed to detect the presence of active caspases within apoptotic cells. These inhibitors were dissolved in DMSO to obtain a 150× concentrated stock solution. Aliquots of these solutions were stored at −20° C. in the dark. Prior to use, a 30× working solution of either FAM-VAD-FMK or SR-VAD-FMK was prepared by diluting the stock solution 1:5 in phosphate buffered saline (PBS) and mixing until the solution become clear. The 30× working solution was diluted 1:30 cell culture media to give a final 1× working reagent concentration of 10 μM.
Cells: Human promyelocytic leukemic HL-60 cells were obtained from American Type Culture Collection (ATCC; Rockville, Md.). They were cultured in 25 mL FALCON flasks (Becton Dickinson Co., Franklin Lakes, N.J.) using RPMI 1640 supplemented with 10% fetal calf serum, 100 units/mL penicillin, […] and 2 mM L-glutamine (all from Gibco/BRL Life Technologies, Inc., Grand Island, N.Y.) in a humidified incubator set to maintain 37.5° C. and 5% CO2 as previously described (Bedner et al., Exp Cell Res., 2000, 259:308-313; Smolewski et al., Cytometry, 2001, 44:73-82). At the onset of experiments, there were fewer than 5×10^5 cells/ml in culture. To induce apoptosis the cells were treated with 0.15 μM DNA topoisomerase I inhibitor camptothecin (CPT; Sigma Chemical Co., St. Louis, Mo.) for 3 hours.
Cell staining and fluorescence measurement by LSC: The HL-60 cells from the untreated or CPT treated cultures were centrifuged (200 g, 5 min) and resuspended in PBS at approximately 10^4 cells per 5 mL volume. Cells were then attached electrostatically to microscope slides as described before (Bedner et al., Exp Cell Res., 2000, 259:308-313; Smolewski et al., Cytometry, 2001, 44:73-82). The attachment was achieved by the incubation (15 min) of cells suspended in serum-free PBS in shallow (<1 mm depth; 1.5×1.5 cm) wells on horizontally placed microscope slides that were rinsed in 100% ethanol and air dried prior to use, at 100% humidity. The electrostatically attached cells remain viable, exclude such dyes as trypan blue and propidium iodide (PI), and have unchanged morphology for several hours (Bedner et al., Exp Cell Res., 2000, 259:308-313). After the cells became attached, PBS was removed from the wells and was replaced by 150 μL of the culture medium containing 10% FCS. FLISP staining solutions were prepared by diluting 5 μL of the 10 mM FFCK or FLCK stock solution into 5 mL of culture medium yielding a final FLISP concentration 10 μM. […]

Substance	percent decrease in frequency of FLCK labeled cells vs cells treated with CPT without unlabeled inhibitor [1]	binding of the ligand by cells treated with CPT vs untreated (control) cells [2]	fluorescence of labeled cells (appearance) [2]	greater fluorescence intensity of FLCK labeled cells compared to cells labeled with FFCK ([2]; identical settings of photomultiplier sensitivity)
N-tosyl-L-phenylalanine chloromethyl ketone [TPCK]	38.9% and 38.9 ± 1.7%	–	–	–
5(6)-Carboxyfluorescyl-L-leucylchloromethyl ketone [FLCK]	–	induced binding	faint	approximately 60%
5(6)-Carboxyfluoresceinyl-L-phenylalanylchloromethyl ketone [FFCK]	–	induced binding	strong	–
